Measured values as given in article PMC5443783, “Prostaglandin E2 glyceryl ester is an endogenous agonist of the nucleotide receptor P2Y6” (Scientific Reports, 2017).
Entries after “also recorded” stand apart in the source; their conditions may differ.

Key:
[1] = target: T1, P2Y6 (Homo sapiens, UniProt Q15077); assay: ERK1/2 phosphorylation (AlphaScreen SureFire) in P2RY6-transfected HEK293 cells; format: cell-based; parameters: expressed in transfected cells; host or cells: HEK293; settings: P2RY6-transfected HEK293 cells, Fig. 3b
T1 sequence (Q15077 whole entry, the tested form may be a part): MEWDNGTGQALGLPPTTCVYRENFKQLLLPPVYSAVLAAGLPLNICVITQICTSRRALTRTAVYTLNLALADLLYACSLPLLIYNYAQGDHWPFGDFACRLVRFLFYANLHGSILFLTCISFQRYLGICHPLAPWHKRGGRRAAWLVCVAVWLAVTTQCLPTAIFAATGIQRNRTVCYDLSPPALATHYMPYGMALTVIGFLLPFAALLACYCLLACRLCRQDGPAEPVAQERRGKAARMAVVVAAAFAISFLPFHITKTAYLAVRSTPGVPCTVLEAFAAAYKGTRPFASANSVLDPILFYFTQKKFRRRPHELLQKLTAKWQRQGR
Description: Cells were transferred to serum-free medium 2 h prior to assay. Ligands and controls (10 µl of 10× concentrates) were added to 90 µl medium and incubated for 5 min at 37 °C. The final concentration of DMSO was 0.2%. The reaction was stopped by aspiration of the medium and addition of 50 µl lysis buffer (PerkinElmer Life Sciences). To measure ERK1/2 phosphorylation, the AlphaScreen® SureFire ERK 1/2 assay kit (PerkinElmer Life Sciences) was used with the high sensitivity protocol. Phosphorylated ERK1/2 was measured in 384-well white OptiPlate microplates (PerkinElmer Life Sciences) with the Fusion AlphaScreen multilabel reader (PerkinElmer Life Sciences).

[2] = target: T1, P2Y6; assay: IP1 accumulation assay in HEK293 cells transfected with wildtype P2RY6; format: cell-based; parameters: expressed in transfected cells; host or cells: HEK293
Description: To measure intracellular IP3 the HitHunter® Inositol (1,4,5) Triphosphate Assay (DiscoveRx, USA) was used according to manufacturer′s protocol. HEK293 cells stably transfected with hP2RY6 were seeded in a 384-well Black microtiter plate (15,000 cells/well) (Greiner Bio One, Germany) and incubated with indicated concentrations of UDP and PGE2-G for 20 seconds. Reaction was stopped by adding 5 µl 0.2 N perchloric acid and measurement of IP3 was performed with the Fusion AlphaScreen multilabel reader (PerkinElmer Life Sciences) according to manufacturer′s protocol. To measure IP1, HEK293 cells expressing wildtype and mutant P2Y6 were seeded into 384-well plates (5,000 cells/well) 24 h prior assay. After aspiration of the medium, cells were incubated with indicated concentrations of agonists/antagonist for 1 h. IP1 measurements using the IP-one HTFR® assay kit (Cisbio assays, USA) were performed according to manufacturer′s protocol. The assays were performed with a final concentration of 1% DMSO.

[3] = target: T2, cannabinoid receptor 2 (Cnr2) (Homo sapiens, UniProt P34972); assay: Intracellular Ca2+ measurement in CNR2-transfected HEK293 cells; format: cell-based; settings: 200 nM of 2-AG, Fig. 2c
T2 construct: expressed in transfected cells; host or cells: HEK293
T2 sequence (P34972 whole entry): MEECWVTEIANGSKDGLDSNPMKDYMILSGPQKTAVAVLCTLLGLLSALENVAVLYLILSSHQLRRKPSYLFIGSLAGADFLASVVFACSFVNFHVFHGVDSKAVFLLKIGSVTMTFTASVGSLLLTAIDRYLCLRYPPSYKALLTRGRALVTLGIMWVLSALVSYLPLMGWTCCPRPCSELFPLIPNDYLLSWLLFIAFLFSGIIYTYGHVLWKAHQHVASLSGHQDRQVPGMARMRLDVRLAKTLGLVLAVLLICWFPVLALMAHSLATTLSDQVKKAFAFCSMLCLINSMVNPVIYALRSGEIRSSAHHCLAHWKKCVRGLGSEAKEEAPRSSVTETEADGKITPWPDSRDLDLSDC
Description: RAW264.7 cells were grown in DMEM supplemented with 10% FBS, A7r5 (rat […]) cells in DMEM with 10% FBS, and A431 (human squamous carcinoma) cells in RPMI supplemented with 10% FBS. All cell lines were grown at 37 °C in a humidified 5% CO2 incubator. For functional assays, receptor constructs were heterologously expressed in human embryonic kidney (HEK293) cells upon transient or stable transfection. Cells were grown in DMEM/F12 supplemented with 10% FBS, 100 units/ml penicillin, and 100 µg/ml streptomycin. For the cAMP-inhibition assay, ERK1/2 phosphorylation assay, and Ca^2+ mobilization assay, cells were split into 96-well plates (2.0 × 10^4 cells/well) and transfected with 250 ng vector construct using MACSfectin™ (Miltenyi Biotec, Germany) according to manufacturer’s protocol. Empty vector (mock) served as the negative control. For siRNA experiments, cells were seeded in 6-well plates (4.0 × 10^5 and 6.0 × 10^5 cells/well for RAW264.7 and H1819, respectively). […]
For fluorometric measurements of intracellular Ca^2+ levels with the FlexStationII instrument (Molecular Devices), RAW264.7 and H1819 cells were seeded into 96-well plates (3.0 × 10^4 cells/well) 24 h prior to assay. […] Fold-response was calculated by RFUmax − RFUmin (ligand)/RFUmax − RFUmin (vehicle). EC50 values were calculated by using GraphPad Prism6 software (GraphPad, USA).

[4] = target: T3, P2Y1 (Homo sapiens, UniProt P47900); assay: Intracellular Ca2+ release in HEK293 cells transfected with P2RY1; format: cell-based; settings: HEK293 transfected with P2RY1, Fig. 3f
T3 construct: expressed in transfected cells; host or cells: HEK293
T3 sequence (P47900 whole entry, species assumed): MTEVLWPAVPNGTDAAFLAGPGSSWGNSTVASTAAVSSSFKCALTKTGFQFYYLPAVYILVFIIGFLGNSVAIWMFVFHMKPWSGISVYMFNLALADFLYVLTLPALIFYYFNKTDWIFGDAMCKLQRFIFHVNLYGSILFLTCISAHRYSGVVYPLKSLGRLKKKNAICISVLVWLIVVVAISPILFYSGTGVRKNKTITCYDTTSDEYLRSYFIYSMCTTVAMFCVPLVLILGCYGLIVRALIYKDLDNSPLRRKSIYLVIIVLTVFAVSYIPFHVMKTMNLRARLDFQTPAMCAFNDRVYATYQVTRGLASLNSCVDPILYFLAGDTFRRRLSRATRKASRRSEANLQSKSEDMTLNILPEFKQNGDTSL
Description: (§1) For fluorometric measurements of intracellular Ca^2+ levels with the FlexStationII instrument (Molecular Devices), RAW264.7 and H1819 cells were seeded into 96-well plates (3.0 × 10^4 cells/well) 24 h prior to assay. Ca^2+ measurements with transiently transfected HEK293 cells were performed 48 h after transfection. Cells were loaded with 200 µl Calcium 5 reagent (Explorer Kit, Molecular Devices, USA) for 60 min at 37 °C, and the assay was performed as described. Agonists and inhibitors were solved in DMSO (100x) and diluted […] in 96-well compound plates containing HBSS. 50 µl of compound solution were added to the assay plate resulting in final concentration of 1% DMSO. Fold-response was calculated by RFUmax − RFUmin (ligand)/RFUmax − RFUmin (vehicle). EC50 values were calculated by using GraphPad Prism6 software (GraphPad, USA).

[5] = target: T4, P2Y12 (Homo sapiens, UniProt Q9H244); assay: Intracellular Ca2+ release in HEK293 cells transfected with P2RY12; format: cell-based; settings: HEK293 transfected with P2RY12, Fig. 3f
T4 construct: expressed in transfected cells; host or cells: HEK293
T4 sequence (Q9H244 whole entry, species assumed): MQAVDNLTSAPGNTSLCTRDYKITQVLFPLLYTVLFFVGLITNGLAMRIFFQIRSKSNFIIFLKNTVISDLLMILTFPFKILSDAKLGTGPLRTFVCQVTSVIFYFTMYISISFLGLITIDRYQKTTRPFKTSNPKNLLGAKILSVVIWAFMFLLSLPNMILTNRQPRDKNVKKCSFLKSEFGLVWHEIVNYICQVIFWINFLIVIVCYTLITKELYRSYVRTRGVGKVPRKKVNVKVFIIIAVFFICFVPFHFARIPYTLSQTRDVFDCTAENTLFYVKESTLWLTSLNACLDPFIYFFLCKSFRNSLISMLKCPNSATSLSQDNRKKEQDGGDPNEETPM
Description: as §1

[6] = test system: 78 orphan GPCRs; assay: PathHunter β-Arrestin Orphan GPCR cell line panel, whole panel; format: cell-based; settings: β-arrestin recruitment
Excerpt: For screening orphan GPCRs as possible targets for PGE2-G, the PathHunter® β-Arrestin assay (DiscoveRx Co., USA) was used. It monitors the activation of a GPCR by utilizing an enzyme fragment complementation assay with β-galactosidase as the functional reporter. Briefly, the enzyme is split into two complementary portions expressed as fusion proteins in the cell. The enzyme acceptor is fused to β2-arrestin, and the ProLink donor peptide is fused to the GPCR of interest. Upon GPCR stimulation, β2-arrestin is recruited to the receptor, bringing the two fragments of β-galactosidase together. This generates an active enzyme that can convert a chemiluminescent substrate, generating a signal detectable on a standard microplate reader (see manufacturer’s instructions). In total, 78 GPCRs, previously considered orphan and individually transfected into cells, were screened by DiscoveRx (Supplementary Table S1). The percentage activity given in the results is calculated using the following formula: % activity = 100% × (mean RLU of test sample - mean RLU of vehicle control)/mean RLU of vehicle control).

[7] = test system: RAW264.7 cells; settings: RAW264.7 and H1819 cell lines; read-out: EC50, Ca2+ response; cited from earlier work
[8] = test system: prostanoid receptors EP1–4, DP, FP, TP, or IP; parameters: method as in PMID 18297109, PMID 14766978, PMID 14757851; settings: cited from earlier work

Compound	ERK1/2 phosphorylation [1]	EC50 ([2]; HEK293 stably transfected with P2RY6, Fig. 5) [nM]	EC50 ([2]; agonist alone, HEK293 transfected with P2RY6, Fig. 6a) [nM]	effect on intracellular Ca2+ [3]	Ca2+ release [4]	Ca2+ release [5]	response of orphan GPCRs [6]	EC50 [7] [nM]	activation of known prostanoid receptors [8]	ratio of EC50 values UDP / PGE2-G ([2]; IP1 accumulation, Fig. 6a)
O=c1ccn([C@@H]2O[C@H](COP(=O)(O)OP(=O)(O)O)[C@@H](O)[C@H]2O)c(=O)[nH]1 [UDP]	led to ERK1/2 phosphorylation; also recorded: induce ERK1/2 phosphorylation	77.3 ± 3.4	18.9 ± 2.3							
Prostaglandin E2 glyceryl ester [PGE2-G]	led to ERK1/2 phosphorylation; also recorded: induce ERK1/2 phosphorylation			did not	not and neither P2Y1 nor P2Y12 showed activity	not and neither P2Y1 nor P2Y12 showed activity	None of the tested receptors demonstrated a positive response	~0.001	does not efficiently activate	~ 63,000
